In brackets after ≈: the same amount, converted by molar mass. Read-outs that look alike come from different tables or passages of the source.
Assays:
[1] = K. C. Agrawal et al, Biochem. Pharmacol. 1974; cited from earlier work
[2] = test system: Mycobacterium avium Patient Strain (Birk); assay: Minimum inhibiting concentration, M. avium Patient Strain (Birk); format: cell-based; conditions: for MIC: Mycobacterium avium, read-out: Minimum inhibiting concentration
Mycobacterium lufu = assay: Minimum inhibiting concentration, M. lufu L 209; format: cell-based; conditions: for MIC: Mycobacterium lufu
[3] = test system: Mycobacterium tuberculosis H 37 RV; assay: Minimum inhibiting concentration, M. tuberculosis H37RV; format: cell-based; conditions: M. tub. H37RV; for MIC: Mycobacterium tuberculosis
Procedure: The minimum inhibiting concentration of the commercially available and inventive substances given in Table 2 was determined according to the known standard process ("Methods for sensitivity testing of bacterial infectious germs", DIN 58940, part 5).
The determination was carried out on the following bacterial cultures:
2. Mycobacterium tuberculosis H 37 RV, FIB 2-85 JS
For culturing the bacterial cultures use was made of nutrient substrates according to Gottsacker and Lowenstein Jensen and culture media according to Lockemann or Dubos-Davis (cf. "Detection processes for mycobacteria from test material, III, culture medium formulations for culturing tuberculosis bacteria", 1978, Publisher: Deutsches Zentralkomitee zur Bekampfung der Tuberculose, Poppenhusenstrasse 14c, 2000 Hamburg 60).
In each case 5×10^-3 to 5×10^-5 mg, based on the wet weight, of the mycobacterial strains were incubated in 2 ml of culture fluid (Lockemann +0.5 wt/vol. % bovine serum albumen fraction 5) at 31° C. with a graded concentration of the particular inhibitor (dilution series). The culture tubes were read off after 8 to 15 days, as a function of the bacterial strain.
The MIC is the inhibitor concentration in μMol/l at which no propagation of the sewn cells is observed.

[4] = cited from earlier work
[5] = test system: Mycobacterium avium SN 304; assay: Minimum inhibiting concentration, M. avium SN 304; format: cell-based
[6] = test system: Mycobacterium smegmatis ATCC 607; assay: Minimum inhibiting concentration, M. smegmatis ATCC 607; format: cell-based; conditions: for MIC: Mycolicibacterium smegmatis
[7] = test system: Mycobacterium marinum SN 1254; assay: Minimum inhibiting concentration, M. marinum SN1254; format: cell-based
[8] = test system: human mammary tumour cell line MDA-MB231; assay: Inhibition of cellnumber increase; format: cell-based; conditions: MDA-MB-231, read-out: 50% Inhibition of cellnumber increase, I50
Procedure: (§1) The semimaximum inhibition of cellnumber increase and thymidine incorporation into DNA was determined on the […], human mammary tumour cell line MDA-MB231 (cf. H. D. Soule et al, J. Nat. Cancer Inst., 51, p.1409, 1973) according to the method described by H. Seidenberger, G. Kranzfelder, S. Wappes, H. Schonenberger, W. Beck and M. Girth, Arch. Pharm. 314, 955, 1981 and M. Lippman, M. E. Monaco and G. Bolan, Cancer Res. 37, 1901, 1977.

in vivo = conditions: sc
Procedure: (§2) The acute toxicity after a single administration of PH 22, pyridine-2-aldehyde-thiosemicarbazone (Py-2-TSC), as well as Conteben (thiacetazone, 4-acetylaminobenzaldehyde-thiosemicarbazone) was determined according to H. J. Hapke, Toxikologie fur Veterinarmediziner, F. Enke Verlag, Stuttgart 1975. The test animals used were Wistar rats and NMRI white mice.

[9] = test system: Sierra Leone D-6 (parasitic malaria strain); assay: Growth of malaria strain Sierra Leone D-6; format: cell-based; conditions: for IC90: read-out: I90
From the text: (§3) Determination of the semimaximum inhibiting concentration (I50) of typical representatives of the inventive compounds for the growth of parasitic malaria strains:
(§4) The determination took place according to the standard process (cf. WHO determination process).
(§5) The process according to Example 35 was repeated with the difference that the semimaximum inhibiting concentration of combinations of the inventive compound PH 22 with (2), (3) inhibitors of dihydrofolic acid reductase, (4) inhibitors of folate synthase and dihydrofolic acid reductase and (5), (6) inhibitors of DNA-synthesis were determined.

[10] = test system: human mammary tumour cell line MDA-MB231; assay: Inhibition of thymidine incorporation into DNA; format: cell-based; conditions: MDA-MB-231, read-out: 50% Inhibition of thymidine incorporation
Procedure: as §1

[11] = test system: Indochina W-2 (parasitic malaria strain); assay: Growth of malaria strain Indochina W-2; format: cell-based; conditions: for IC90: read-out: I90
From the text: as §3, §4, §5

lymphatic leukaemia P388 = conditions: C. Pellerano et al, Il Farmaco 1985; cited from earlier work
[12] = mouse, in vivo
Procedure: as §2

M. leprae [13] = assay: Propagation of M. leprae in mouse paws; format: in vivo
Procedure: The therapeutic action was determined as a reduction of the number of acid-resistant bacteria in the mouse paw according to C. C. Shepard, J. Experim. Met., 112, p. 445, 1960.
It is possible to detect the synergistic effect of the combinations, even under in vivo conditions.

M. leprae [14] = assay: In vitro propagation of M. leprae, thymidine incorporation; format: cell-based; conditions: Mycobacterium leprae, read-out: % Reduction Thymidine incorporation; for inhibition of growth at 50000 µg/mL: 50 mg/ml; for inhibition of growth at 100000 µg/mL: 100 mg/ml
Procedure: The inhibiting action was determined as a reaction of the thymidine absorption and the ATP content in M. Leprae suspensions, in the manner described by A. M. Dhople, Med. Sci. Res., 15, p.

[15] = ATCC607, M. smegm. ATCC 607, read-out: Minimum inhibiting concentration
[16] = M. marin. SN1254, read-out: Minimum inhibiting concentration
[17] = SN304, M. avium SN 304, read-out: Minimum inhibiting concentration
[18] = read-out: IC50 in the case of combinations
[19] = two months in feed, DDS 0.0001%, Rifampicin 0.001%, K-130 0.01%, Brodimoprim 0.01%, PH 22-26 0.05%

Row | SMILES | MIC ([2]; M. avium Patient str.) | MIC (Mycobacterium lufu) | MIC [3] | MIC [6, 15] | MIC [7, 16] | IC50 [8] | IC50 ([9]; read-out: I50) | IC90 [9] | IC50 [10] | IC50 ([11]; read-out: I50) | IC90 [11] | other results
1 | NC(=S)NN=Cc1ccc(O)cn1 [5-hydroxypyridine-2-(carbox)-aldehyde-thiosemicarbazone] |  |  |  |  |  |  |  |  |  |  |  | gastrointestinal toxicity [1]: serious gastrointestinal toxicity
2 | CC(=O)Nc1ccc(C=NNC(N)=S)cc1 [Conteben, 4-acetylaminobenzaldehyde-thiosemicarbazone, reference compound] | 35 µM (≈ 8.27 µg/mL) | 339 µM (≈ 80.1 µg/mL) | 4 µM (≈ 0.945 µg/mL) |  |  |  |  |  |  |  |  | LD50 ([4]; Mouse, p.o., Comptes Rendus Soc. Biol. 1310 (1950)): 950 mg/kg body weight; LD50 ([4]; Mouse, subc., J. Pharm. Pharmacol. 2, 764 (1950)): 1000-2000 mg/kg body weight
3 | NC[C@H]1O[C@H](O[C@H]2[C@H](O)[C@@H](O[C@H]3O[C@H](CO)[C@@H](O)[C@H](N)[C@H]3O)[C@H](N)C[C@@H]2N)[C@H](O)[C@@H](O)[C@@H]1O [Kanamycin, reference compound] |  |  |  |  |  |  |  |  |  |  |  | MIC ([5]; SN304, read-out: Minimum inhibiting concentration): 33 µM (≈ 16 µg/mL); MIC [2]: 17 µM (≈ 8.24 µg/mL)
4 | C(=NNc1ccccn1)c1ccccn1 [PH 22, pyridine-2-aldehyde-2'-pyridylhydrazone] | 29 µM (≈ 5.75 µg/mL) | 32 µM (≈ 6.34 µg/mL) | 97 µM (≈ 19.2 µg/mL) | 20 µM (≈ 3.96 µg/mL) | 77 µM (≈ 15.3 µg/mL) | 151 nM | 300 nM | 1300 nM | 118 nM | 2000 nM | 2500 nM | MIC [5, 17]: 30 µM (≈ 5.95 µg/mL); LD50 (in vivo; rat): > 2000 mg/kg; IC50 [9, 18]: 0.0556 µg/mL; IC50 [11, 18]: 0.39 µg/mL
5 | CC(=NNc1ccccn1)c1ccccn1 [PH 22-2, 2-acetylpyridine-2'-pyridylhydrazone] | 132 µM (≈ 28 µg/mL) | 33 µM (≈ 7 µg/mL) | 48 µM (≈ 10.2 µg/mL) | 24 µM (≈ 5.09 µg/mL) | 28 µM (≈ 5.94 µg/mL) |  |  |  |  |  |  | in vivo treatment of lymphatic leukaemia P388 (lymphatic leukaemia P388): ineffective
6 | CC(=NN(c1ccccn1)c1ccc2ccccc2n1)c1ccccn1 [PH 22-4, 2-acetylpyridine-2'-pyridyl-2'-quinolylhydrazone] |  |  |  |  |  |  |  |  |  |  |  | Minimum inhibiting concentration ([6]; M. smegm. ATCC 607): 15 μM/1; Minimum inhibiting concentration ([2]; M. avium Patient str.): 58 μM/1; in vivo treatment of lymphatic leukaemia P388 (lymphatic leukaemia P388): ineffective; Minimum inhibiting concentration (Mycobacterium lufu): 6,7 μM/1; Minimum inhibiting concentration [3]: 4,8 μM/1
7 | Cc1ccnc(C=NNc2ccccn2)c1 [PH 22-7, 4-methyl-pyridine-2-aldehyde-2'-pyridylhydrazone] |  | 57 µM (≈ 12.1 µg/mL) | 113 µM (≈ 24 µg/mL) |  |  | 278 nM |  |  | 159 nM |  |  | MIC ([6]; ATCC607, read-out: Minimum inhibiting concentration): 113 µM (≈ 24 µg/mL); MIC ([7]; SN1254, read-out: Minimum inhibiting concentration): 113 µM (≈ 24 µg/mL)
8 | c1ccc(C(=NNc2ccccn2)c2ccccn2)cc1 [PH 22-9, 2-benzoyl pyridine-2'-pyridylhydrazone] | 73 µM (≈ 20 µg/mL) | 5.5 µM (≈ 1.51 µg/mL) | 13 µM (≈ 3.57 µg/mL) | 36.5 µM (≈ 10 µg/mL) | 18.3 µM (≈ 5.02 µg/mL) | 97 nM | 1800 nM | 2200 nM | 89 nM | 1500 nM | 5300 nM | in vivo treatment of lymphatic leukaemia P388 (lymphatic leukaemia P388): ineffective
9 | NC(=NNc1ccccn1)c1ccccn1 [PH 22-12, pyridine-2-carboxylic acid 2'-pyridyl-amidrazone] |  |  |  |  |  | 460 nM | 1500 nM | 4300 nM | 330 nM | 6300 nM | 41000 nM | 
10 | c1ccc(C(=NNc2ccc3ccccc3n2)c2ccccn2)cc1 [PH 22-15, 2-benzoylpyridine-2'-quinolylhydrazone] | 18.5 µM (≈ 6 µg/mL) | 1.2 µM (≈ 0.389 µg/mL) | 0.97 µM (≈ 0.315 µg/mL) | 3.1 µM (≈ 1.01 µg/mL) | 4.6 µM (≈ 1.49 µg/mL) | 1530 nM |  |  | 570 nM |  |  | 
11 | CCC(=NNc1nncc2ccccc12)c1ccccn1 [PH 22-25, ethyl-2-pyridylketone-1'-phthalazinylhydrazine] |  | 2.7 µM (≈ 0.749 µg/mL) | 36 µM (≈ 9.98 µg/mL) | 10.8 µM (≈ 3 µg/mL) | 101 µM (≈ 28 µg/mL) | 194 nM | 300 nM | 450 nM | 104 nM | 400 nM | 700 nM | 
12 | Clc1cc(NN=Cc2ccccn2)ncn1 [PH 22-26, pyridine-2-aldehyde-6'-chloro-4'-pyrimidylhydrazone] |  | 1.3 µM (≈ 0.304 µg/mL) | 6.2 µM (≈ 1.45 µg/mL) | 25.7 µM (≈ 6.01 µg/mL) | 12.9 µM (≈ 3.01 µg/mL) |  | 2000 nM | 3000 nM |  | 3500 nM | 6200 nM | toxic effects [12]: No toxic effects were observed; % Inhibition of propagation of M. leprae in mouse paws (M. leprae [13]; 0.1% in feed, 4 months): 40%; M. leprae/paw, treated mice (M. leprae [13]; 0.1% in feed, 4 months (control 0.468)): 0.283 × 10^6; % Inhibition of propagation of M. leprae in mouse paws (M. leprae [13]; 0.1% in feed, 6.5 months): 69%; % Inhibition of propagation of M. leprae in mouse paws (M. leprae [13]; 0.1% in feed, 8.5 months): 77%; M. leprae/paw, treated mice (M. leprae [13]; 0.1% in feed, 8.5 months (control 2.978)): 0.684 × 10^6; % Inhibition of propagation of M. leprae in mouse paws (M. leprae [13]; 0.1% in feed, 12 months): 74%; M. leprae/paw, treated mice (M. leprae [13]; 0.1% in feed, 12 months (control 3.682)): 0.945 × 10^6; % Inhibition of propagation of M. leprae in mouse paws (M. leprae [13]; [19]): 0%; inhibition of growth at 50000 µg/mL (M. leprae [14]): 30%; inhibition of growth at 100000 µg/mL (M. leprae [14]): 48%
13 | C(=NNc1ccc2ccccc2n1)c1ccccn1 [PQ 22, pyridine-2-aldehyde-2'-quinolylhydrazone] |  | 10 µM (≈ 2.48 µg/mL) | 28 µM (≈ 6.95 µg/mL) | 21 µM (≈ 5.21 µg/mL) | 12 µM (≈ 2.98 µg/mL) | 321 nM | 1500 nM | 2000 nM | 157 nM | 1100 nM | 1700 nM | MIC [5, 17]: 24 µM (≈ 5.96 µg/mL)
14 | NC(=S)NN=Cc1ccccn1 [Py-2-TSC, pyridine-2-aldehyde-thiosemicarbazone, reference compound] |  | 40 µM (≈ 7.21 µg/mL) |  |  |  |  |  |  |  |  |  | LD50 (in vivo; Rat, subc., read-out: LD50): 30 mg/kg; LD50 ([4]; Mouse i.p., Cancer Res. 25, 1454 (1965)): 40 mg/kg body weight
15 | CO[C@H]1/C=C/O[C@@]2(C)Oc3c(C)c(O)c4c(O)c(c(/C=N/N5CCN(C)CC5)c(O)c4c3C2=O)NC(=O)/C(C)=C\C=C\[C@H](C)[C@H](O)[C@@H](C)[C@@H](O)[C@@H](C)[C@H](OC(C)=O)[C@@H]1C [Rifampicin] | 5 µM (≈ 4.11 µg/mL) |  |  |  |  |  |  |  |  |  |  | MIC [5, 17]: 39 µM (≈ 32.1 µg/mL); % Inhibition of propagation of M. leprae in mouse paws (M. leprae [13]; [19]): 19%; inhibition of growth at 50000 µg/mL (M. leprae [14]): 2%; inhibition of growth at 100000 µg/mL (M. leprae [14]): 0%
16 | [H]/N=C(/N)N[C@H]1[C@H](O)[C@@H](O)[C@H](O[C@@H]2O[C@@H](C)[C@](O)(C=O)[C@H]2O[C@@H]2O[C@@H](CO)[C@H](O)[C@@H](O)[C@@H]2NC)[C@@H](N/C(N)=N\[H])[C@@H]1O [Streptomycin] |  |  |  |  |  |  |  |  |  |  |  | MIC [5, 17]: 55 µM (≈ 32 µg/mL)
